Source: publication PMC5218480 (PLoS ONE, 2017)

Tested on: MV-4-11 cells
Assay: Gene expression microarray analysis (Affymetrix PrimeView) and GSEA
Assay type: cell-based, human
Parameters: RFU PODN (11730768_x_at) / Fold change /veh PODN (11730768_x_at) / RFU LINC00158 (11744669_a_at) / Fold change /veh LINC00158 (11744669_a_at) / RFU DUSP10 (11751237_a_at) / Fold change /veh DUSP10 (11751237_a_at) / RFU ID3 (11757404_x_at) / Fold change /veh ID3 (11757404_x_at) / RFU PLEKHG5 (11737974_s_at) / Fold change /veh PLEKHG5 (11737974_s_at) / RFU LRRC4B (11730491_at) / Fold change /veh LRRC4B (11730491_at) / RFU GIMAP4 (11747438_a_at) / Fold change /veh GIMAP4 (11747438_a_at) / RFU KRT8 (11758183_x_at) / Fold change /veh KRT8 (11758183_x_at) / RFU CNN1 (11734310_a_at) / Fold change /veh CNN1 (11734310_a_at) / RFU VPS37D (11726825_at) / Fold change /veh VPS37D (11726825_at) / RFU C10orf10 (11716522_x_at) / Fold change /veh C10orf10 (11716522_x_at) / RFU KIR2DL2 /// KIR2DL4 /// KIR2DL5A /// KIR2DL5B /// KIR2DS1 /// KIR2DS2 /// KIR2DS3 /// KIR2DS4 /// KIR3DL3 /// KIR3DL3 /// KIR3DS1 (11738374_at) / Fold change /veh KIR2DL2 /// KIR2DL4 /// KIR2DL5A /// KIR2DL5B /// KIR2DS1 /// KIR2DS2 /// KIR2DS3 /// KIR2DS4 /// KIR3DL3 /// KIR3DL3 /// KIR3DS1 (11738374_at) / RFU C1QL1 (11718748_at) / Fold change /veh C1QL1 (11718748_at) / RFU TMPRSS4 (11747572_a_at) / Fold change /veh TMPRSS4 (11747572_a_at) / RFU HAMP (11756126_x_at) / Fold change /veh HAMP (11756126_x_at) / RFU RNFT2 (11725882_a_at) / Fold change /veh RNFT2 (11725882_a_at) / RFU NR4A2 (11747474_a_at) / Fold change /veh NR4A2 (11747474_a_at) / RFU ABCC12 (11746883_a_at) / Fold change /veh ABCC12 (11746883_a_at) / RFU TMEM136 (11760407_x_at) / Fold change /veh TMEM136 (11760407_x_at) / RFU CLDN22 /// WWC2 (11732394_at) / Fold change /veh CLDN22 /// WWC2 (11732394_at) / RFU HLA-DPB1 (11760878_x_at) / Fold change /veh HLA-DPB1 (11760878_x_at) / RFU SPINT1 (11716480_a_at) / Fold change /veh SPINT1 (11716480_a_at) / RFU GAP43 (11754022_s_at) / Fold change /veh GAP43 (11754022_s_at) / RFU A4GNT (11735810_at) / Fold change /veh A4GNT (11735810_at) / RFU PRB3 (11715151_x_at) / Fold change /veh PRB3 (11715151_x_at) / RFU TUBB4B (11761932_at) / Fold change /veh TUBB4B (11761932_at) / RFU CAPN14 (11732068_a_at) / Fold change /veh CAPN14 (11732068_a_at) / RFU TMCC2 (11721928_a_at) / Fold change /veh TMCC2 (11721928_a_at) / RFU IRGQ (11745062_a_at) / Fold change /veh IRGQ (11745062_a_at) / RFU FAM174B (11720279_a_at) / Fold change /veh FAM174B (11720279_a_at) / RFU TMPRSS4 (11748680_a_at) / Fold change /veh TMPRSS4 (11748680_a_at) / RFU FAM212B (11763350_a_at) / Fold change /veh FAM212B (11763350_a_at) / RFU PLEKHG5 (11743358_a_at) / Fold change /veh PLEKHG5 (11743358_a_at) / RFU ZSCAN30 (11745921_a_at) / Fold change /veh ZSCAN30 (11745921_a_at) / RFU CMKLR1 (11741424_a_at) / Fold change /veh CMKLR1 (11741424_a_at) / RFU LOC101060620 /// MAPK8IP1 (11723275_at) / Fold change /veh LOC101060620 /// MAPK8IP1 (11723275_at) / RFU SPTSSB (11747773_x_at) / Fold change /veh SPTSSB (11747773_x_at) / RFU PRSS12 (11739890_at) / Fold change /veh PRSS12 (11739890_at) / RFU BIN1 (11741810_x_at) / Fold change /veh BIN1 (11741810_x_at) / RFU WNT11 (11732464_a_at) / Fold change /veh WNT11 (11732464_a_at) / RFU C10orf10 (11716521_a_at) / Fold change /veh C10orf10 (11716521_a_at) / RFU C5orf56 (11738089_at) / Fold change /veh C5orf56 (11738089_at) / RFU CYB561 (11721691_x_at) / Fold change /veh CYB561 (11721691_x_at) / RFU ANKRD19P (11752326_a_at) / Fold change /veh ANKRD19P (11752326_a_at) / RFU OR2T12 /// OR2T33 /// OR2T8 (11738714_s_at) / Fold change /veh OR2T12 /// OR2T33 /// OR2T8 (11738714_s_at) / RFU VCAN (11748164_a_at) / Fold change /veh VCAN (11748164_a_at) / RFU JSRP1 (11732532_at) / Fold change /veh JSRP1 (11732532_at) / RFU KRTAP10-11 (11738290_x_at) / Fold change /veh KRTAP10-11 (11738290_x_at) / RFU MYO3A (11730013_a_at) / Fold change /veh MYO3A (11730013_a_at) / RFU EBF3 (11725865_a_at) / Fold change /veh EBF3 (11725865_a_at) / RFU CAMK2N1 (11719241_x_at) / Fold change /veh CAMK2N1 (11719241_x_at) / RFU C5orf56 (11738088_a_at) / Fold change /veh C5orf56 (11738088_a_at) / RFU OLFML3 (11715873_a_at) / Fold change /veh OLFML3 (11715873_a_at) / RFU LOC100653217 /// NTM (11731650_a_at) / Fold change /veh LOC100653217 /// NTM (11731650_a_at) / RFU MAPK11 (11762145_a_at) / Fold change /veh MAPK11 (11762145_a_at) / RFU FIZ1 (11724087_x_at) / Fold change /veh FIZ1 (11724087_x_at) / RFU OASL (11726364_x_at) / Fold change /veh OASL (11726364_x_at) / RFU SOX15 (11748057_x_at) / Fold change /veh SOX15 (11748057_x_at) / RFU CD79A (11719716_a_at) / Fold change /veh CD79A (11719716_a_at) / RFU HIST1H1D (11736915_at) / Fold change /veh HIST1H1D (11736915_at) / RFU CASKIN2 (11723855_a_at) / Fold change /veh CASKIN2 (11723855_a_at) / RFU LOC730098 (11760151_x_at) / Fold change /veh LOC730098 (11760151_x_at) / RFU OR4N2 (11742367_at) / Fold change /veh OR4N2 (11742367_at) / RFU PRRT2 (11749266_a_at) / Fold change /veh PRRT2 (11749266_a_at) / RFU SNX32 (11753110_a_at) / Fold change /veh SNX32 (11753110_a_at) / RFU CDHR5 (11726645_a_at) / Fold change /veh CDHR5 (11726645_a_at) / RFU RCAN1 (11760418_a_at) / Fold change /veh RCAN1 (11760418_a_at) / RFU FAM167A (11723789_a_at) / Fold change /veh FAM167A (11723789_a_at) / RFU FAM26E (11764081_at) / Fold change /veh FAM26E (11764081_at) / RFU ISYNA1 (11749810_s_at) / Fold change /veh ISYNA1 (11749810_s_at) / RFU ACY1 (11761880_at) / Fold change /veh ACY1 (11761880_at) / RFU 11764098_at / Fold change /veh 11764098_at / RFU SAMD14 (11745864_x_at) / Fold change /veh SAMD14 (11745864_x_at) / RFU NPB (11741838_a_at) / Fold change /veh NPB (11741838_a_at) / RFU TMPRSS6 (11731388_a_at) / Fold change /veh TMPRSS6 (11731388_a_at) / RFU KRTAP10-2 (11738614_at) / Fold change /veh KRTAP10-2 (11738614_at) / RFU ARHGAP8 /// PRR5-ARHGAP8 (11727945_x_at) / Fold change /veh ARHGAP8 /// PRR5-ARHGAP8 (11727945_x_at) / RFU KRTAP5-7 /// NADSYN1 (11734609_at) / Fold change /veh KRTAP5-7 /// NADSYN1 (11734609_at) / RFU RASL12 (11751679_a_at) / Fold change /veh RASL12 (11751679_a_at) / RFU CDKN2B (11736163_a_at) / Fold change /veh CDKN2B (11736163_a_at) / RFU PRF1 (11729649_at) / Fold change /veh PRF1 (11729649_at) / RFU, ZNF638 /// ZNF638-IT1 / Fold change vs veh, ZNF638 /// ZNF638-IT1 / RFU, PANK3 / Fold change vs veh, PANK3 / RFU, SH3YL1 / Fold change vs veh, SH3YL1 / RFU, ZEB2 / Fold change vs veh, ZEB2 / RFU, NRIP1 / Fold change vs veh, NRIP1 / RFU, PTTG1IP / Fold change vs veh, PTTG1IP / RFU, CAPN2 / Fold change vs veh, CAPN2 / RFU, MED14 / Fold change vs veh, MED14 / RFU, SNORA58 / Fold change vs veh, SNORA58 / RFU, C1orf63 / Fold change vs veh, C1orf63 / RFU, LRRFIP1 / Fold change vs veh, LRRFIP1 / RFU, NDUFAF7 / Fold change vs veh, NDUFAF7 / RFU, SLC12A2 / Fold change vs veh, SLC12A2 / RFU, IBTK / Fold change vs veh, IBTK / RFU, ESF1 / Fold change vs veh, ESF1 / Fold change vs veh, TMEM50B / RFU, TAOK1 / Fold change vs veh, TAOK1 / RFU, ACBD3 / Fold change vs veh, ACBD3 / RFU, TMA16 / Fold change vs veh, TMA16 / RFU, RWDD3 / Fold change vs veh, RWDD3 / RFU, BCAT1 / Fold change vs veh, BCAT1 / RFU, EDEM3 / Fold change vs veh, EDEM3 / RFU, TMEM33 / Fold change vs veh, TMEM33 / RFU, WDR75 / Fold change vs veh, WDR75 / RFU, AHCTF1 / Fold change vs veh, AHCTF1 / RFU, TFRC / Fold change vs veh, TFRC / RFU, ZDHHC17 / Fold change vs veh, ZDHHC17 / RFU, NOM1 / Fold change vs veh, NOM1 / RFU, ARL8B / Fold change vs veh, ARL8B / RFU, ZBTB11 / Fold change vs veh, ZBTB11 / RFU, TAMM41 / Fold change vs veh, TAMM41 / RFU, KIAA1704 /// LOC100996395 / Fold change vs veh, KIAA1704 /// LOC100996395 / RFU, ING1 / Fold change vs veh, ING1 / RFU, TRMT61B / Fold change vs veh, TRMT61B / RFU, FUBP3 / Fold change vs veh, FUBP3 / RFU, TP53 / Fold change vs veh, TP53 / RFU, TNKS2 / Fold change vs veh, TNKS2 / RFU, ZFP14 / Fold change vs veh, ZFP14 / RFU, ACTR2 / Fold change vs veh, ACTR2 / RFU, PPP3R1 / Fold change vs veh, PPP3R1 / RFU, PIK3R1 / Fold change vs veh, PIK3R1 / RFU, HNRNPA1 / Fold change vs veh, HNRNPA1 / RFU, RNF170 / Fold change vs veh, RNF170 / RFU, ZNF28 / Fold change vs veh, ZNF28 / RFU, RNGTT / Fold change vs veh, RNGTT / RFU, OGT / Fold change vs veh, OGT / RFU, BRD1 / Fold change vs veh, BRD1 / RFU, MARS / Fold change vs veh, MARS / RFU, ZNF655 / Fold change vs veh, ZNF655 / RFU, FAHD1 / Fold change vs veh, FAHD1 / RFU, BDP1 / Fold change vs veh, BDP1 / RFU, LRRCC1 / Fold change vs veh, LRRCC1 / RFU, ARID1A / Fold change vs veh, ARID1A / RFU, ZNF146 / Fold change vs veh, ZNF146 / RFU, ZNF330 / Fold change vs veh, ZNF330 / RFU, GPN3 / Fold change vs veh, GPN3 / RFU, C9orf123 / Fold change vs veh, C9orf123 / RFU, N4BP2L2 / Fold change vs veh, N4BP2L2 / RFU, ARFIP1 / Fold change vs veh, ARFIP1 / RFU, FAM179B / Fold change vs veh, FAM179B / RFU, BCL10 / Fold change vs veh, BCL10 / RFU, UHRF1BP1L / Fold change vs veh, UHRF1BP1L / RFU, BET1 / Fold change vs veh, BET1 / RFU, CNOT2 / Fold change vs veh, CNOT2 / RFU, ZNF268 / Fold change vs veh, ZNF268 / Fold change vs veh, ZNF507 / RFU, DGCR2 / Fold change vs veh, DGCR2 / RFU, WDSUB1 / Fold change vs veh, WDSUB1 / Fold change vs veh, HSP90B1 /// MIR3652 / RFU, ADSS / Fold change vs veh, ADSS / RFU, GK / Fold change vs veh, GK / RFU, ZNF148 / Fold change vs veh, ZNF148 / RFU, TAF9 / Fold change vs veh, TAF9 / RFU, SLC1A5 / Fold change vs veh, SLC1A5 / RFU, SLMO2 / Fold change vs veh, SLMO2 / RFU, ABCC4 / Fold change vs veh, ABCC4 / RFU, LOC101060439 /// RAP1B / Fold change vs veh, LOC101060439 /// RAP1B / RFU, RFX7 / Fold change vs veh, RFX7 / RFU, GTPBP10 / Fold change vs veh, GTPBP10 / RFU, CNEP1R1 / Fold change vs veh, CNEP1R1 / RFU, BIVM-ERCC5 /// ERCC5 / Fold change vs veh, BIVM-ERCC5 /// ERCC5 / RFU, ILF3 / Fold change vs veh, ILF3 / RFU 11762660_at / Fold change /veh 11762660_at / RFU VCAN (11757783_s_at) / Fold change /veh VCAN (11757783_s_at) / RFU DDX43 (11728927_at) / Fold change /veh DDX43 (11728927_at) / RFU KRT8 (11758188_x_at) / Fold change /veh KRT8 (11758188_x_at) / RFU NKD1 (11759106_at) / Fold change /veh NKD1 (11759106_at) / RFU SRD5A1 (11742802_a_at) / Fold change /veh SRD5A1 (11742802_a_at) / RFU TPSAB1 /// TPSB2 (11721975_s_at) / Fold change /veh TPSAB1 /// TPSB2 (11721975_s_at) / RFU GSTM3 (11746129_a_at) / Fold change /veh GSTM3 (11746129_a_at) / RFU IL23R (11737362_x_at) / Fold change /veh IL23R (11737362_x_at) / RFU TMEM51 (11727254_a_at) / Fold change /veh TMEM51 (11727254_a_at) / RFU PIWIL2 (11732686_x_at) / Fold change /veh PIWIL2 (11732686_x_at) / RFU ORM1 (11744905_x_at) / Fold change /veh ORM1 (11744905_x_at) / RFU CCDC152 (11743942_at) / Fold change /veh CCDC152 (11743942_at) / RFU ECM1 (11717891_a_at) / Fold change /veh ECM1 (11717891_a_at) / RFU IL23R (11748794_a_at) / Fold change /veh IL23R (11748794_a_at) / RFU TNFAIP8L3 (11732012_x_at) / Fold change /veh TNFAIP8L3 (11732012_x_at) / RFU MBOAT4 (11741988_at) / Fold change /veh MBOAT4 (11741988_at) / RFU 11764193_at / Fold change /veh 11764193_at / RFU TMEM53 (11763286_at) / Fold change /veh TMEM53 (11763286_at) / RFU MAGEB2 (11727129_at) / Fold change /veh MAGEB2 (11727129_at) / RFU TMEM200A (11744735_a_at) / Fold change /veh TMEM200A (11744735_a_at) / RFU CCDC152 (11751479_a_at) / Fold change /veh CCDC152 (11751479_a_at) / RFU FAM211A (11726209_a_at) / Fold change /veh FAM211A (11726209_a_at) / RFU RGS16 (11746705_a_at) / Fold change /veh RGS16 (11746705_a_at) / RFU VCAN (11755009_s_at) / Fold change /veh VCAN (11755009_s_at) / RFU RHOB (11743442_s_at) / Fold change /veh RHOB (11743442_s_at) / RFU RGS16 (11720943_a_at) / Fold change /veh RGS16 (11720943_a_at) / RFU RGS16 (11720944_at) / Fold change /veh RGS16 (11720944_at) / RFU, VPS4B / Fold change vs veh, VPS4B / RFU, CREB1 / Fold change vs veh, CREB1 / RFU, DNAJC13 / Fold change vs veh, DNAJC13 / RFU, GNAQ / Fold change vs veh, GNAQ / RFU, CDK5R1 / Fold change vs veh, CDK5R1 / RFU, ZRANB3 / Fold change vs veh, ZRANB3 / RFU, CUL4A / Fold change vs veh, CUL4A / RFU, CCNY / Fold change vs veh, CCNY / RFU, UFL1 / Fold change vs veh, UFL1 / RFU, COG3 / Fold change vs veh, COG3 / RFU, DIAPH2 / Fold change vs veh, DIAPH2 / RFU, SKA2 / Fold change vs veh, SKA2 / RFU, AFF3 / Fold change vs veh, AFF3 / RFU, LMF1 / Fold change vs veh, LMF1 / RFU, IPO11 / Fold change vs veh, IPO11 / RFU, DFFB / Fold change vs veh, DFFB / RFU, FOXP1 / Fold change vs veh, FOXP1 / RFU, CARD8 / Fold change vs veh, CARD8 / RFU, STRN3 / Fold change vs veh, STRN3 / RFU, ADK / Fold change vs veh, ADK / RFU, RASSF2 / Fold change vs veh, RASSF2 / RFU, WIPF1 / Fold change vs veh, WIPF1 / RFU, LARP1B / Fold change vs veh, LARP1B / RFU, RASA1 / Fold change vs veh, RASA1 / RFU, RB1 / Fold change vs veh, RB1 / RFU, PPFIA1 / Fold change vs veh, PPFIA1 / RFU, MAT2A / Fold change vs veh, MAT2A / RFU, CCT5 / Fold change vs veh, CCT5 / RFU, WDR92 / Fold change vs veh, WDR92 / RFU, CUX1 / Fold change vs veh, CUX1 / RFU, TTC7A / Fold change vs veh, TTC7A / RFU, TMEM135 / Fold change vs veh, TMEM135 / RFU, DEPTOR / Fold change vs veh, DEPTOR / RFU, CPM / Fold change vs veh, CPM / RFU, DNAJB6 / Fold change vs veh, DNAJB6 / RFU, CACNA2D3 / Fold change vs veh, CACNA2D3 / RFU, DTX4 / Fold change vs veh, DTX4 / RFU, TFCP2 / Fold change vs veh, TFCP2 / RFU, GMCL1 /// GMCL1P1 / Fold change vs veh, GMCL1 /// GMCL1P1 / RFU, AEBP2 / Fold change vs veh, AEBP2 / RFU, SNHG1 /// SNORD22 /// SNORD25 /// SNORD26 /// SNORD27 /// SNORD28 /// SNORD29 /// SNORD31 / Fold change vs veh, SNHG1 /// SNORD22 /// SNORD25 /// SNORD26 /// SNORD27 /// SNORD28 /// SNORD29 /// SNORD31 / Fold change (Aza/veh), C12orf56 (ProbeSet 11735607_a_at) / Fold change (ACY-1035/veh), C12orf56 (ProbeSet 11735607_a_at) / Fold change (Aza/veh), FGFR1OP (ProbeSet 11751329_s_at) / Fold change (ACY-1035/veh), FGFR1OP (ProbeSet 11751329_s_at) / Fold change (Aza/veh), VPS36 (ProbeSet 11739960_a_at) / Fold change (ACY-1035/veh), VPS36 (ProbeSet 11739960_a_at) / RFU SYPL1 (11715823_x_at) / Fold change /veh SYPL1 (11715823_x_at) / RFU IGFBP7 (11715501_s_at) / Fold change /veh IGFBP7 (11715501_s_at) / RFU REEP3 (11722064_at) / Fold change /veh REEP3 (11722064_at) / RFU IGLL1 (11728026_x_at) / Fold change /veh IGLL1 (11728026_x_at): dose or concentration left out as unconfirmed
Conditions: gene C12orf56; ACY-1035 vs DMSO; LIST F

## Nc1ccc(-c2cccs2)cc1NC(=O)c1ccc2c(c1)cc(C1CC1)n2CCN1CCOCC1 [ACY-1035]
  Fold change (ACY-1035/veh), C12orf56 (ProbeSet 11735607_a_at): 0.39
